Measured values from patent publication US20230013402A1, “REGENERATING FUNCTIONS AND PHENOTYPES OF CONNECTIVE TISSUE THROUGH NPAS2 SUPPRESSION” (The Regents of the University of California, priority 2019, published 2023).
Structures can show the parent of a compound that is named as a salt. Where two headings read alike, the source gives them in different places.

Tests used:
human skin fibroblasts = experiment: High-throughput cell migration assay (Oris Pro Cell Migration Assay plate) / standardized viability; assay type: cell-based
Source text: (§1) Mouse MSC carrying Npas2-LacZ reporter gene, as described by Hassan N, et al., PLoS One. 2017; 12(8):e0183359, which is incorporated by reference herein in its entirety, was immortalized using SV40 in order to accommodate a large-scale HTS. […] This cell system was used to screen FDA Approved Drug Library (1120 compounds). The same library was also screened for cell viability by Calcein AM Hoechst 33342 staining Cell migration assays using the Oris™ Pro Cell Migration Assay plate, as described by Joy M E et al., PloS one. 2014; 9(2):e88350, which is incorporated by reference herein in its entirety, was used for a high-throughput migration assay using human skin fibroblasts
(§2) The combined Z score was used to identify hit compounds (Table 1).

[1] = system: Npas2-LacZ reporter gene (Npas2 expression); experiment: High throughput screening of FDA Approved Drug Library for Npas2-LacZ reporter expression; assay type: cell-based, mouse
Source text: as §1, §2

Npas2-LacZ expression = experiment: High throughput screening of LOPAC1280 for Npas2-LacZ expression of mouse BMSC; assay type: cell-based; parameters: concentration or dose not given beside the values; conditions: Activity against negative controls in LOPAC screening; Npas2 downregulation
Source text: FIGS. 13A-13C show an unbiased chemical genetics analysis was used to determine the molecular mechanisms underlying implant osseointegration. […] Hit compounds were identified as z-score >2.5 or <−2.5.
Femur BMSC derived from Npas2−/− mouse was previously characterized for the expression of LacZ, as described by Hassan, N., et al., (2017) Titanium biomaterials with complex surfaces induced aberrant peripheral circadian rhythms in bone marrow mesenchymal stromal cells. PLoS One 12, e0183359, which is incorporated by reference herein in its entirety, which was used for high throughput screening of LOPAC 1280 (FIG. 13A). […] The validation study identified a total of 14 compounds (FIG. 13C), which were subjected to the chemical genetics analysis. […] By contrast, Npas2 down regulating compounds stimulate or accumulate cAMP, or induce cAMP response element binding (CREB) activation (Table 3).

fibroblasts = conditions: in vitro, compared to vehicle; cited from earlier work
[2] = Table 2, additional Npas2 expression suppressors
[3] = Table 1, HTS of FDA Drug Library
[4] = Table 1, combined Z score (product)

Row | Compound | Migration (standardized viability) Z Score (human skin fibroblasts; [2]) | NPAS2 Z Score [1, 2] | also measured
1 | Cl.NCc1ccc(S(N)(=O)=O)cc1 [Mafenide hydrochloride] | −0.188 | −2.8 | –
2 | NC(=O)OCC(O)COc1ccc(Cl)cc1 (stereo not drawn) [Chlorphensin carbamate] | −0.157 | −2.36 | –
3 | S=c1nc[nH]c2nc[nH]c12 [MS-1500387, Mercaptopurine] | 0.577 | −2.08 | –
4 | CN1[C@@H]2CC[C@H]1CC(OC(=O)C(CO)c1ccccc1)C2.CN1[C@@H]2CC[C@H]1CC(OC(=O)C(CO)c1ccccc1)C2.O.O=S(=O)(O)O (stereo partly drawn) [Atropine sulfate monohydrate] | – | −2.04 | NpasZ × ViabilityZ ([1]; Table 2, combined Z score (product)): −0.3692
5 | OCC(O)CN1CCN(c2ccccc2)CC1 (racemic) [Dropropizine (R,S)] | −1.21 | −2.27 | –
6 | O=C(N/N=C/c1ccc([N+](=O)[O-])o1)c1ccc(O)cc1 [Nifuroxazide] | −0.402 | −3.43 | –
7 | Clc1ccc(COC(Cn2ccnc2)c2ccc(Cl)cc2Cl)cc1 (stereo not drawn) [Econazole nitrate] | 0.805 | −2.41 | –
8 | Cn1cnc2c1c(=O)[nH]c(=O)n2C [Theobromine] | −0.6 | −2.04 | –
9 | CN1C(=O)OC(C)(C)C1=O [Trimethadione] | −0.105 | −2.74 | –
10 | COc1cc2c(c(OC)c1OC)-c1ccc(OC)c(=O)cc1[C@@H](NC(C)=O)CC2 [Down03, Colchicine] | – | – | % Activity (Npas2-LacZ expression): −29.7%
11 | CCN(CC)CCNC(=O)COc1ccc(OC)cc1.Cl [Mefexamide hydrochloride, mefexamide hydrochloride] | – | – | Migration (standardized viability) Z Score (human skin fibroblasts; [3]): 1.12; NPAS2 Z Score [1, 3]: −2.06; NPAS Z × ViabilityZ [1, 4]: −2.31
12 | C/C=C(/C)C(=O)O[C@H]1C(C)=C2[C@H]([C@@H]1OC(=O)CCCCCCC)[C@@](C)(OC(C)=O)C[C@H](OC(=O)CCC)[C@@]1(O)[C@H]2OC(=O)[C@@]1(C)O [Down12, THAPSIGARGIN] | – | – | % Activity (Npas2-LacZ expression): −43.5%
13 | C[C@H]1CCC/C=C/[C@@H]2C[C@H](O)C[C@H]2[C@H](O)/C=C/C(=O)O1 [Down01, Brefeldin A] | – | – | % Activity (Npas2-LacZ expression): −45.4%
14 | Cn1c(=O)c(-c2c(Cl)cccc2Cl)cc2cnc(Nc3ccc(N4CCOCC4)cc3)nc21 [Down14, PD-173952] | – | – | % Activity (Npas2-LacZ expression): −33.0%
15 | CNCC[C@@H](Oc1ccccc1C)c1ccccc1 [SAM001246626, Atomoxetine hydrochloride] | −0.749 | −2.6 | –
16 | O=C(O)COC(=O)Cc1ccccc1Nc1c(Cl)cccc1Cl [Aceclofenac] | 0.666 | −2.16 | –
17 | COc1cccc2c1C(=O)c1c(O)c3c(c(O)c1C2=O)C[C@@](O)(C(C)=O)C[C@@H]3O[C@H]1CC(N)[C@H](O)C(C)O1.Cl (stereo partly drawn) [Daunorubicin hydrochloride] | −4.56 | −2.45 | –
18 | CC(=O)OC1CN2CCC1CC2.Cl (stereo not drawn) [Aceclidine Hydrochloride] | 0.198 | −2.2 | –
19 | C[C@]12C=CC(=O)C=C1CC[C@@H]1[C@@H]2[C@@H](O)C[C@@]2(C)[C@H]1CC[C@]2(O)C(=O)CO [Prednisolone] | −2.31 | −2.42 | –
20 | CC[C@@]1([C@@H]2OC(C3O[C@@](O)(CO)[C@H](C)C[C@@H]3C)C[C@@H]2C)CC[C@H]([C@]2(C)CC[C@@]3(C[C@H](O)[C@@H](C)C([C@@H](C)[C@@H](OC)[C@H](C)C(=O)O)O3)O2)O1 (stereo partly drawn) [Monensin sodium salt] | −8.13 | −4.34 | –

Row | Compound | Migration (standardized viability) Z Score (human skin fibroblasts; [2]) | NPAS2 Z Score [1, 2] | also measured
21 | CCN(CC)C(=O)N1CCN(C)CC1.O=C(O)CC(O)(CC(=O)O)C(=O)O [Diethylcarbamazine citrate] | −2.08 | −2.36 | –
22 | c1ccc2c(c1)[I+]c1ccccc1-2 [Down08, Diphenyleneiodonium chloride] | – | – | % Activity (Npas2-LacZ expression): −18.6%
23 | C[C@@H]1C[C@@H]([C@H](O)CC2CC(=O)NC(=O)C2)C(=O)[C@@H](C)C1 [Cycloheximide] | −4.91 | −3.29 | –
24 | Tyloxapol | – | – | Migration (standardized viability) Z Score (human skin fibroblasts): 0.572; NPAS2 Z Score [1]: −2.39; NpasZ × ViabilityZ [1]: −1.367
25 | CC[n+]1c(/C=C/C=C2/N(C)c3ccccc3C2(C)C)sc2ccccc21.[I-] [Down06, AC-93253 iodide] | – | – | % Activity (Npas2-LacZ expression): −25.1%
26 | O=C(O)c1cccnc1Nc1cccc(C(F)(F)F)c1 [Niflumic Acid, Niflumic acid] | – | – | Migration (standardized viability) Z Score (human skin fibroblasts; [3]): 1.79; NPAS2 Z Score [1, 3]: −1.99; NPAS Z × ViabilityZ [1, 4]: −3.56
27 | CC[C@H](C)C(=O)O[C@H]1C[C@H](O)C=C2C=C[C@H](C)[C@H](CC[C@@H](O)C[C@@H](O)CC(=O)O)[C@H]21 [Pravastatin] | 0.64 | −2.16 | –
28 | Cc1c(NC(=O)c2cccnc2)c(=O)n(-c2ccccc2)n1C [Nifenazone] | −0.243 | −2.41 | –
29 | CCN(CC)CCOc1ccc(Nc2ncc3cc(-c4c(Cl)cccc4Cl)c(=O)n(C)c3n2)cc1 [Down13, PD-166285 hydrate] | – | – | % Activity (Npas2-LacZ expression): −35.5%
30 | O=[N+]([O-])O[C@@H]1CO[C@H]2[C@@H]1OC[C@@H]2O [Isosorbide mononitrate] | 0.647 | −2.01 | –
31 | COc1cc([C@@H]2c3cc4c(cc3[C@H](O)[C@H]3COC(=O)[C@H]23)OCO4)cc(OC)c1OC [Down10, Podophyllotoxin] | – | – | % Activity (Npas2-LacZ expression): −15.6%
32 | CN(Cc1ccc(C(C)(C)C)cc1)Cc1cccc2ccccc12.Cl [Butenafine Hydrochloride] | 0.239 | −2.02 | –
33 | CCOC(=O)[C@H](CCc1ccccc1)N[C@@H](C)C(=O)N1CCC[C@H]1C(=O)O [MS-1501214, enalapril maleate] | −1.53 | −3.22 | –
34 | CC(C)NC[C@H](O)COc1ccc(CC(N)=O)cc1 [(S)-(-)-Atenolol, (S)-(−)-Atenolol] | – | – | NPAS2 Z Score [1]: −2
35 | NCCc1c[nH]c2ccc(O)cc12 [serotonin] | – | – | Width of scratch zone (fibroblasts): reduced
36 | O=C(OC1C[C@@H]2CC3C[C@H](C1)N2CC3=O)c1c[nH]c2ccccc12 (stereo partly drawn) [Dolasetron mesilate] | −1.91 | −2.64 | –
37 | CCCNC(C)C(=O)Nc1c(C)csc1C(=O)OC.Cl (stereo not drawn) [Articaine hydrochloride] | −0.466 | −2.02 | –
38 | C[C@]12CC[C@@H]3c4ccc(O)cc4CC[C@H]3[C@@H]1CCC2=O [Estrone] | −2.56 | −2.01 | –
39 | CCc1c(C)[nH]c2c1C(=O)C(CN1CCOCC1)CC2.Cl (stereo not drawn) [Molindone hydrochloride] | – | – | Migration (standardized viability) Z Score (human skin fibroblasts; [3]): 1.22; NPAS2 Z Score [1, 3]: −2.1; NPAS Z × ViabilityZ [1, 4]: −2.56
40 | CCCCCC[C@H]1C(=O)O[C@H](C)[C@H](NC(=O)c2cccc(NC=O)c2O)C(=O)O[C@@H](C)[C@@H]1OC(=O)CC(C)C (stereo in doubt) [Antimycin A] | – | – | Migration (standardized viability) Z Score (human skin fibroblasts; [3]): 2.13; NPAS2 Z Score [1, 3]: −2.72; NPAS Z × ViabilityZ [1, 4]: −5.79
